The source of these data is patent US20220389061A1, “IMMUNOMODULATORS” (priority 2019, published 2022).

The experiment has as its target T1, PD-1/PD-L1 (Homo sapiens, UniProt Q9NZQ7).
T1 construct: TVMV protease site linker (C); made in house; host or cells: HEK293T cells
As to the kind of experiment: PD-1/PD-L1 Homogenous Time-Resolved Fluorescence (HTRF) binding assay. From the text: The ability of the compounds of formula (I) to bind to PD-L1 was investigated using a PD-1/PD-L1 Homogenous Time-Resolved Fluorescence (HTRF) binding assay.
The interaction of PD-1 and PD-L1 can be assessed using soluble, purified preparations of the extracellular domains of the two proteins. The PD-1 and PD-L1 protein extracellular domains were expressed as fusion proteins with detection tags, for PD-1, the tag was the Fc portion of Immunoglobulin (PD-1-Ig) and for PD-L1 it was the 6 histidine motif (PD-L1-His). All binding studies were performed in an HTRF assay buffer consisting of dPBS supplemented with 0.1% […] bovine serum albumin and 0.05% (v/v) Tween-20. For the h/PD-L1-His binding assay, inhibitors were pre-incubated with PD-L1-His (10 nM final) for 15 m in 4 μl of assay buffer, followed by addition of PD-1-Ig (20 nM final) in 1 μl of assay buffer and further incubation for 15 m. HTRF detection was achieved using europium crypate-labeled anti-Ig (1 nM final) and allophycocyanin (APC) labeled anti-His (20 nM final). Antibodies were diluted in HTRF detection buffer and 5 μl was dispensed on top of the binding reaction. […] Additional binding assays were established between the human proteins PD-1-Ig/PD-L2-His (20 & 5 nM, respectively) and CD80-His/PD-L1-Ig (100 & 10 nM, respectively). […]

[1] abbreviates: PD-L1-His 10 nM pre-incubated with inhibitor, PD-1-Ig 20 nM, read-out: HTRF IC50.

Where two headings read alike, the source gives them in different places. Starred links: 1 amine or outer side, 2 acyl side, 3 side chain; linkers in the order of their positions; H or OH if unused. Positions of bridges follow the written chain, without caps; N, C: chain ends. Non-standard residues stand in square brackets, D forms with d. Residues, ends and D or L forms follow the SMILES beside them. Groups on a side chain read outwards from the residue. *: point of attachment. Trp(1-CH2CO2Me) = COC(=O)Cn1cc(C[C@H](N)C(=O)O)c2ccccc21; Trp(1-CH2COOH) = N[C@@H](Cc1cn(CC(=O)O)c2ccccc12)C(=O)O; Benzoyl(4-F,3-CF3) = O=C(c1ccc(F)c(C(F)(F)F)c1)*; Pyrazinecarbonyl = O=C(c1cnccn1)*; Hyp = O=C(O)[C@@H]1C[C@@H](O)CN1; X25 = FC(F)(F)Oc1ccc(NC(=S)*)cc1; X53 = Cc1nc(-c2cccnc2)sc1C(=O)*; X69 = c1ccc(-c2ccc(N*)cc2)cc1; NMeNle = CCCC[C@H](NC)C(=O)O; X22 = c1ccc(N(c2ccccc2)*)cc1; X2 = c1ccc(-c2ccccc2N*)cc1; NMeA = CN[C@@H](C)C(=O)O; Dab = NCC[C@H](N)C(=O)O; X76 = Fc1cc(N*)cc(F)c1F; Dap = NC[C@H](N)C(=O)O; X26 = S=C(Nc1ccccc1)*; X89 = O=C(Oc1ccccc1)*; CO = O=C([*:1])[*:2]; Bz = O=C(c1ccccc1)*; NHPh = c1ccc(N*)cc1

Usually IC50 stands for the concentration at which inhibition is half-maximal.

T1 sequence (Q9NZQ7 18-239): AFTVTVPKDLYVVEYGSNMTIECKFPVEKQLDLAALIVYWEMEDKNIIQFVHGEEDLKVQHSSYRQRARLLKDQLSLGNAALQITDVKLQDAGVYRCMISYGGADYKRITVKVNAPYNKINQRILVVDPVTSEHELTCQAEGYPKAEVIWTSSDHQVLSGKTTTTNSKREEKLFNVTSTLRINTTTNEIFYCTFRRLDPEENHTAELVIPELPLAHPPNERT

Turning to `CCCC[C@H]1C(=O)N(C)[C@@H](CCCC)C(=O)N[C@@H](CC(C)C)C(=O)N[C@H](C(=O)NCC(N)=O)CSCC(=O)N[C@@H](Cc2ccc(O)cc2)C(=O)N(C)[C@@H](C)C(=O)N[C@@H](CC(N)=O)C(=O)N2CCC[C@H]2C(=O)N[C@@H](CNC(=S)Nc2ccccc2)C(=O)N[C@@H](CC(C)C)C(=O)N2C[C@H](O)C[C@H]2C(=O)N[C@@H](Cc2c[nH]c3ccccc23)C(=O)N[C@@H](CCNC(=S)Nc2ccccc2)C(=O)N[C@@H](Cc2cn(CC(=O)O)c3ccccc23)C(=O)N1C` [Example 1001] ({CH2CO}-Y[NMeA]NP[Dap](X26)L[Hyp]W[Dab](X26)[Trp(1-CH2COOH)][NMeNle][NMeNle]LCG-NH2; thioether N-14), the half-inhibitory concentration (IC50) under setting [1] was found to be 1.9 nM.

Turning to `CCCC[C@H]1C(=O)N(C)[C@@H](CCCC)C(=O)N[C@@H](CC(C)C)C(=O)N[C@H](C(=O)NCC(N)=O)CSCC(=O)N[C@@H](Cc2ccc(O)cc2)C(=O)N(C)[C@@H](C)C(=O)N[C@@H](CC(N)=O)C(=O)N2CCC[C@H]2C(=O)N[C@@H](CNC(=O)c2cnccn2)C(=O)N[C@@H](CC(C)C)C(=O)N2C[C@H](O)C[C@H]2C(=O)N[C@@H](Cc2c[nH]c3ccccc23)C(=O)N[C@@H](CCNC(=O)c2cnccn2)C(=O)N[C@@H](Cc2cn(CC(=O)OC)c3ccccc23)C(=O)N1C` [Example 1002] ({CH2CO}-Y[NMeA]NP[Dap](Pyrazinecarbonyl)L[Hyp]W[Dab](Pyrazinecarbonyl)[Trp(1-CH2CO2Me)][NMeNle][NMeNle]LCG-NH2; thioether N-14), under setting [1], the IC50 amounted to 3.5 nM. Regarding `CCCC[C@H]1C(=O)N(C)[C@@H](CCCC)C(=O)N[C@@H](CC(C)C)C(=O)N[C@H](C(=O)NCC(N)=O)CSCC(=O)N[C@@H](Cc2ccc(O)cc2)C(=O)N(C)[C@@H](C)C(=O)N[C@@H](CC(N)=O)C(=O)N2CCC[C@H]2C(=O)N[C@@H](CNC(=O)N(c2ccccc2)c2ccccc2)C(=O)N[C@@H](CC(C)C)C(=O)N2C[C@H](O)C[C@H]2C(=O)N[C@@H](Cc2c[nH]c3ccccc23)C(=O)N[C@@H](CCNC(=O)N(c2ccccc2)c2ccccc2)C(=O)N[C@@H](Cc2cn(CC(=O)OC)c3ccccc23)C(=O)N1C` [Example 1004] ({CH2CO}-Y[NMeA]NP[Dap]([CO-X22])L[Hyp]W[Dab]([CO-X22])[Trp(1-CH2CO2Me)][NMeNle][NMeNle]LCG-NH2; thioether N-14), under setting [1], the IC50 came to 23 nM.

For `CCCC[C@H]1C(=O)N(C)[C@@H](CCCC)C(=O)N[C@@H](CC(C)C)C(=O)N[C@H](C(=O)NCC(N)=O)CSCC(=O)N[C@@H](Cc2ccc(O)cc2)C(=O)N(C)[C@@H](C)C(=O)N[C@@H](CC(N)=O)C(=O)N2CCC[C@H]2C(=O)N[C@@H](CNC(=O)c2ccccc2)C(=O)N[C@@H](CC(C)C)C(=O)N2C[C@H](O)C[C@H]2C(=O)N[C@@H](Cc2c[nH]c3ccccc23)C(=O)N[C@@H](CCNC(=O)c2ccccc2)C(=O)N[C@@H](Cc2cn(CC(=O)OC)c3ccccc23)C(=O)N1C` [Example 1006] ({CH2CO}-Y[NMeA]NP[Dap](Bz)L[Hyp]W[Dab](Bz)[Trp(1-CH2CO2Me)][NMeNle][NMeNle]LCG-NH2; thioether N-14), the 50% inhibitory concentration (IC50) came to 0.2 nM. For `CCCC[C@H]1C(=O)N(C)[C@@H](CCCC)C(=O)N[C@@H](CC(C)C)C(=O)N[C@H](C(=O)NCC(N)=O)CSCC(=O)N[C@@H](Cc2ccc(O)cc2)C(=O)N(C)[C@@H](C)C(=O)N[C@@H](CC(N)=O)C(=O)N2CCC[C@H]2C(=O)N[C@@H](CNC(=O)c2ccc(F)c(C(F)(F)F)c2)C(=O)N[C@@H](CC(C)C)C(=O)N2C[C@H](O)C[C@H]2C(=O)N[C@@H](Cc2c[nH]c3ccccc23)C(=O)N[C@@H](CCNC(=O)c2ccc(F)c(C(F)(F)F)c2)C(=O)N[C@@H](Cc2cn(CC(=O)OC)c3ccccc23)C(=O)N1C` [Example 1007] ({CH2CO}-Y[NMeA]NP[Dap](Benzoyl(4-F,3-CF3))L[Hyp]W[Dab](Benzoyl(4-F,3-CF3))[Trp(1-CH2CO2Me)][NMeNle][NMeNle]LCG-NH2; thioether N-14), the IC50 under setting [1] was found to be 32 nM.

On to `CCCC[C@H]1C(=O)N(C)[C@@H](CCCC)C(=O)N[C@@H](CC(C)C)C(=O)N[C@H](C(=O)NCC(N)=O)CSCC(=O)N[C@@H](Cc2ccc(O)cc2)C(=O)N(C)[C@@H](C)C(=O)N[C@@H](CC(N)=O)C(=O)N2CCC[C@H]2C(=O)N[C@@H](CNC(=O)c2sc(-c3cccnc3)nc2C)C(=O)N[C@@H](CC(C)C)C(=O)N2C[C@H](O)C[C@H]2C(=O)N[C@@H](Cc2c[nH]c3ccccc23)C(=O)N[C@@H](CCNC(=O)c2sc(-c3cccnc3)nc2C)C(=O)N[C@@H](Cc2cn(CC(=O)OC)c3ccccc23)C(=O)N1C` [Example 1008] ({CH2CO}-Y[NMeA]NP[Dap](X53)L[Hyp]W[Dab](X53)[Trp(1-CH2CO2Me)][NMeNle][NMeNle]LCG-NH2; thioether N-14), for which the IC50 under setting [1] turned out to be 7.6 nM.

In the case of `CCCC[C@H]1C(=O)N(C)[C@@H](CCCC)C(=O)N[C@@H](CC(C)C)C(=O)N[C@H](C(=O)NCC(N)=O)CSCC(=O)N[C@@H](Cc2ccc(O)cc2)C(=O)N(C)[C@@H](C)C(=O)N[C@@H](CC(N)=O)C(=O)N2CCC[C@H]2C(=O)N[C@@H](CNC(=O)Nc2ccccc2)C(=O)N[C@@H](CC(C)C)C(=O)N2C[C@H](O)C[C@H]2C(=O)N[C@@H](Cc2c[nH]c3ccccc23)C(=O)N[C@@H](CCNC(=O)Nc2ccccc2)C(=O)N[C@@H](Cc2cn(CC(=O)O)c3ccccc23)C(=O)N1C` [Example 1009] ({CH2CO}-Y[NMeA]NP[Dap]([CO-NHPh])L[Hyp]W[Dab]([CO-NHPh])[Trp(1-CH2COOH)][NMeNle][NMeNle]LCG-NH2; thioether N-14), the IC50 under setting [1] worked out at 6.5 nM. As for `CCCC[C@H]1C(=O)N(C)[C@@H](CCCC)C(=O)N[C@@H](CC(C)C)C(=O)N[C@H](C(=O)NCC(N)=O)CSCC(=O)N[C@@H](Cc2ccc(O)cc2)C(=O)N(C)[C@@H](C)C(=O)N[C@@H](CC(N)=O)C(=O)N2CCC[C@H]2C(=O)N[C@@H](CNC(=S)Nc2ccc(OC(F)(F)F)cc2)C(=O)N[C@@H](CC(C)C)C(=O)N2C[C@H](O)C[C@H]2C(=O)N[C@@H](Cc2c[nH]c3ccccc23)C(=O)N[C@@H](CCNC(=S)Nc2ccc(OC(F)(F)F)cc2)C(=O)N[C@@H](Cc2cn(CC(=O)O)c3ccccc23)C(=O)N1C` [Example 1010] ({CH2CO}-Y[NMeA]NP[Dap](X25)L[Hyp]W[Dab](X25)[Trp(1-CH2COOH)][NMeNle][NMeNle]LCG-NH2; thioether N-14), under setting [1], the IC50 is 7.1 nM. `CCCC[C@H]1C(=O)N(C)[C@@H](CCCC)C(=O)N[C@@H](CC(C)C)C(=O)N[C@H](C(=O)NCC(N)=O)CSCC(=O)N[C@@H](Cc2ccc(O)cc2)C(=O)N(C)[C@@H](C)C(=O)N[C@@H](CC(N)=O)C(=O)N2CCC[C@H]2C(=O)N[C@@H](CNC(=O)Nc2ccc(-c3ccccc3)cc2)C(=O)N[C@@H](CC(C)C)C(=O)N2C[C@H](O)C[C@H]2C(=O)N[C@@H](Cc2c[nH]c3ccccc23)C(=O)N[C@@H](CCNC(=O)Nc2ccc(-c3ccccc3)cc2)C(=O)N[C@@H](Cc2cn(CC(=O)O)c3ccccc23)C(=O)N1C` [Example 1011] ({CH2CO}-Y[NMeA]NP[Dap]([CO-X69])L[Hyp]W[Dab]([CO-X69])[Trp(1-CH2COOH)][NMeNle][NMeNle]LCG-NH2; thioether N-14) returned an IC50 of 17 nM. `CCCC[C@H]1C(=O)N(C)[C@@H](CCCC)C(=O)N[C@@H](CC(C)C)C(=O)N[C@H](C(=O)NCC(N)=O)CSCC(=O)N[C@@H](Cc2ccc(O)cc2)C(=O)N(C)[C@@H](C)C(=O)N[C@@H](CC(N)=O)C(=O)N2CCC[C@H]2C(=O)N[C@@H](CNC(=O)Nc2cc(F)c(F)c(F)c2)C(=O)N[C@@H](CC(C)C)C(=O)N2C[C@H](O)C[C@H]2C(=O)N[C@@H](Cc2c[nH]c3ccccc23)C(=O)N[C@@H](CCNC(=O)Nc2cc(F)c(F)c(F)c2)C(=O)N[C@@H](Cc2cn(CC(=O)O)c3ccccc23)C(=O)N1C` [Example 1012] ({CH2CO}-Y[NMeA]NP[Dap]([CO-X76])L[Hyp]W[Dab]([CO-X76])[Trp(1-CH2COOH)][NMeNle][NMeNle]LCG-NH2; thioether N-14): the IC50 under setting [1] came to 4.8 nM.

Turning to `CCCC[C@H]1C(=O)N(C)[C@@H](CCCC)C(=O)N[C@@H](CC(C)C)C(=O)N[C@H](C(=O)NCC(N)=O)CSCC(=O)N[C@@H](Cc2ccc(O)cc2)C(=O)N(C)[C@@H](C)C(=O)N[C@@H](CC(N)=O)C(=O)N2CCC[C@H]2C(=O)N[C@@H](CNC(=O)Oc2ccccc2)C(=O)N[C@@H](CC(C)C)C(=O)N2C[C@H](O)C[C@H]2C(=O)N[C@@H](Cc2c[nH]c3ccccc23)C(=O)N[C@@H](CCNC(=O)Oc2ccccc2)C(=O)N[C@@H](Cc2cn(CC(=O)OC)c3ccccc23)C(=O)N1C` [Example 1013] ({CH2CO}-Y[NMeA]NP[Dap](X89)L[Hyp]W[Dab](X89)[Trp(1-CH2CO2Me)][NMeNle][NMeNle]LCG-NH2; thioether N-14), the IC50 amounted to 5.2 nM. On to `CCCC[C@H]1C(=O)N(C)[C@@H](CCCC)C(=O)N[C@@H](CC(C)C)C(=O)N[C@H](C(=O)NCC(N)=O)CSCC(=O)N[C@@H](Cc2ccc(O)cc2)C(=O)N(C)[C@@H](C)C(=O)N[C@@H](CC(N)=O)C(=O)N2CCC[C@H]2C(=O)N[C@@H](CNC(=O)Nc2ccccc2-c2ccccc2)C(=O)N[C@@H](CC(C)C)C(=O)N2C[C@H](O)C[C@H]2C(=O)N[C@@H](Cc2c[nH]c3ccccc23)C(=O)N[C@@H](CCNC(=O)Nc2ccccc2-c2ccccc2)C(=O)N[C@@H](Cc2cn(CC(=O)O)c3ccccc23)C(=O)N1C` [Example 1014] ({CH2CO}-Y[NMeA]NP[Dap]([CO-X2])L[Hyp]W[Dab]([CO-X2])[Trp(1-CH2COOH)][NMeNle][NMeNle]LCG-NH2; thioether N-14), for which, for the setting “read-out: HTRF IC50, PD-L1-His 10 nM pre-incubated with inhibitor, PD-1-Ig 20 nM”, the half-maximal inhibitory concentration (IC50) turned out to be 0.7 nM.
